{"source": "patent US20220378763A1", "about": "“COMPOUND FOR TREATMENT OF ACUTE INFLAMMATION IN THE MYOCARDIUM” (CALPROTECT AB, priority 2019, published 2022)", "key": {"[1]": {"tested_on": "C57BL/6 mice with MI induced by permanent coronary artery ligation", "assay": "Flow cytometry of myeloid cells and BrdU incorporation on day 2 post-MI", "type": "in vivo, mouse", "method": "Immune cells from blood, spleen, heart and bone-marrow were collected at 2 or 7 days post-MI, and analysed by flow-cytometry. Mice were anesthetized by intraperitoneal injection of a mixture of xylazine (10 mg/kg) and ketamine (100 mg/kg). After 10 minutes, blood was collected by cardiac punction. Thereafter, the spleen was removed and the heart was perfused with 5 ml ice-cold PBS. Perfused hearts were excised and collected into tubes with PBS and kept on ice. Femurs and tibias from each mouse were used to obtain whole bone marrow for analysis. Blood was stained with fluorochrome-labelled antibodies against mouse monocyte and neutrophil markers diluted in MACS buffer (PBS, 10% FCS and 0.5% BSA), followed by treatment with erythrocyte lysis buffer, washing and analysis. Spleens were mashed trough a cell strainer in ice-cold PBS. Hearts were cut into small pieces and placed into tubes containing 2.5 ml digestion cocktail (Collagenase I, 450 U/ml; Collagenase XI, 125 U/ml; DNAase I, 60 U/ml; Hyaluronidase type 1-5, 60 U/ml diluted in PBS containing Ca and Mg) incubated for 1 h at 37° C. with shaking at 220 rpm. Bone marrow was flushed from femur and tibia using ice-cold PBS. Cell suspensions from spleen, heart and bone marrow were filtered through a 40 um cell strainer (BD), treated with erythrocyte lysis buffer, washed and stained. For intracellular staining, cells were fixed, permeabilized and stained. Cell populations were analyzed by flow cytometry in a Gallios Flow Cytometer (Backman Coulter), and the results were analyzed using FlowJo (FlowJo®, LLC; Tree Star). The following anti-mouse antibodies were used for the flow cytometric analysis: anti-CD45 (30-F11), anti-CD11b (M1/70), anti-Ly6C (HK1.4), anti-CD115 (AFS98), anti-Ly6G (1A8), anti-F4/80 (BM8), anti-CCR2 (475301), anti-Ter119 (TER119), anti-Gr1 (RB6-8C5), anti-CD45R/B220 (RA3-6B2), anti-CD3ξ (145-2C11), anti-NK1.1 (PK136), anti-Ly6A/E (Sca-1) (E13-1617), anti-CD117 (c-kit) (2B8), anti-CD48 (HM48.1), anti-CD150/SLAM (TC15-12F12.2), anti-CD16/32 (93), anti-CD34 (MEC14.7) (all from BioLegend, San Diego, Calif., USA); anti-MerTK (DSSMMER) and anti-Nur77 (12.14) (eBioscience).\nMice were injected intraperitoneally with 1 mg BrdU 24 hours prior to organ harvest. Intracellular BrdU staining was performed in hematopoietic stem cells collected from the bone marrow using BrdU flow kits (BD Pharmigen™), according to the manufacturer instructions. BrdU expression was analysed by flow cytometry.\nNeutrophilia and monocytosis, elevated circulating numbers of neutrophils and monocytes, have been associated with an adverse prognosis in MI patients. We studied the effects of S100A9 blockade on myeloid cell populations in blood, heart, and myeloid organs on day 2 post-MI, at the peak of the acute inflammatory period. The gating strategy is described in FIG. 8."}, "[2]": {"tested_on": "Nur77 in bone marrow-derived monocytes", "assay": "Nur77 expression in cultured bone marrow-derived monocytes stimulated with S100A9", "type": "cell-based, mouse", "conditions": "S100A9 20 μg/mL, ABR-238901 100 μM, 24 h", "method": "To obtain bone marrow-derived monocytes, bone marrow cells were isolated from femur and tibia of wild-type mice (C57BL/6NRJ) (n=3). Cells were cultured in RPMI-1640 (GIBCO Invitrogen) with 100 U/ml penicillin/streptomycin (GIBCO Invitrogen), 10% heat-inactivated fetal calf serum (FCS; GIBCO Invitrogen) and 20 ng/ml M-CSF (Peprotech) for 3 days. On day 3, unattached cells were collected, and the monocyte phenotype was confirmed by flow cytometry as CD45^+CD11b^+CD115^+ cells. The cells were re-suspended in medium and seeded at a density of 1×10^5 cells/ml. Extracellular S100A9 (20 μg/mL) with or without the S100A9 antagonist ABR-238901 at a concentration of 100 μM were incubated in the presence of 10 μM ZnCl2 (Sigma) and 2 mM CaCl2 for 15 minutes and added to the monocyte culture. Recombinant human endotoxin-free S100A9 protein was provided by Active Biotech AB. Following 24 h stimulation, intracellular Nur77 expression was analysed by flow cytometry."}, "[3]": {"tested_on": "C57BL/6 mice with sepsis induced by bacterial lipopolysaccharide", "assay": "LPS-induced sepsis: plasma cytokines by multiplex assay", "type": "in vivo, mouse", "conditions": "24 h after sepsis induction, vs PBS", "method": "General animal care, induction of sepsis and treatments were performed as described under Example 7. We included 5 mice per treatment group. The mice were sacrificed 24 h after sepsis induction and blood was drawn using cardiac puncture with an EDTA 0.5M coated syringe. Blood was spun down at 3000 rpm for 10 minutes and plasma was collected.\nCytokine measurements were performed using the Cytokine & Chemokine 36-Plex Mouse procartaPlex™ P1A (ThermoFischer Scientific) as per manufacturer's instructions. Data are presented as mean±SD."}}}
{"compound": "COc1ncc(S(=O)(=O)Nc2cncc(Cl)c2O)cc1Br", "note": "[ABR-238901, 5-bromo-N-(5-chloro-4-hydroxypyridin-3-yl)-6-methoxypyridine-3-sulfonamide]", "values": [{"measurement": "Number of Ly6Chi monocytes in the bone marrow", "setting": "[1]; 2 days treatment post-MI", "result": "increased"}, {"measurement": "Numbers of proliferating BrdU+ Lin−Sca+Kit+CD150+CD48− hematopoietic stem cells", "setting": "[1]; bone marrow, 24 h after BrdU", "result": "reduced"}, {"measurement": "Numbers of macrophages in the heart", "setting": "[1]; day 2 post-MI", "result": "lower"}, {"measurement": "Numbers of monocytes in the bone marrow", "setting": "[1]; day 2 post-MI", "result": "significantly higher"}, {"measurement": "Numbers of monocytes in the spleen", "setting": "[1]; day 2 post-MI", "result": "did not have a significant effect"}, {"measurement": "Numbers of neutrophils in the spleen", "setting": "[1]; day 2 post-MI", "result": "did not have a significant effect"}, {"measurement": "Neutrophil counts in the bone marrow", "setting": "[1]; day 2 post-MI, vs MI control", "result": "highly increased"}, {"measurement": "Numbers of neutrophils in blood", "setting": "[1]; day 2 post-MI, vs MI control", "result": "significantly lowered"}, {"measurement": "Numbers of neutrophils in myocardium", "setting": "[1]; day 2 post-MI, vs MI control", "result": "significantly lowered"}, {"measurement": "S100A9-induced increase of Nur77 expression", "setting": "[2]", "result": "inhibited"}, {"measurement": "Plasma level of GM-CSF", "setting": "[3]", "result": "decreased"}, {"measurement": "Plasma level of IFN-γ", "setting": "[3]", "result": "decreased"}, {"measurement": "Plasma level of IL17-A", "setting": "[3]", "result": "decreased"}, {"measurement": "Plasma level of IL-1b", "setting": "[3]", "result": "decreased"}, {"measurement": "Plasma level of IL-6", "setting": "[3]", "result": "decreased"}, {"measurement": "Plasma level of IL-22", "setting": "[3]", "result": "decreased"}, {"measurement": "Plasma level of LIF", "setting": "[3]", "result": "decreased"}, {"measurement": "Plasma level of LIX", "setting": "[3]", "result": "decreased"}, {"measurement": "Plasma level of MCP-1", "setting": "[3]", "result": "decreased"}]}
